Test results published in patent US8658801B2, “Pesticides containing a bicyclic bisamide structure” (Syngenta Crop Protection, LLC, priority 2006, dated 2014).

How the values were obtained:
[1] = test system: Plutella xylostella (Diamond Back Moth); assay: Example B14: comparison with state of the art, Plutella xylostella, larvicide, feeding/residual contact, preventive; format: in vivo
Procedure: Plutella xylostella (Diamond Back Moth)
(Larvicide, Feeding/Residual Contact Activity, Preventive)
24-well microtiter plate (MTP) with artificial diet is treated with test solutions by pipetting. After drying, the MTP's are infested with larvae (L2)(10-15 per well). After an incubation period of 5 days, samples are checked for larval mortality, antifeedant and growth regulation.

Heliothis virescens = assay: Example B15: comparison with state of the art, Heliothis virescens ovo-larvicide test; format: in vivo; details: Heliothis virescens, 96 h, read-out: Ovo-larvicidal activity (%) after 4 days
Procedure: Activity Against Heliothis virescens (Ovo-Larvicide Test)
(§1) Eggs (0-24 h old) are placed in 24-well microtiter plate on artificial diet and treated with test solutions by pipetting. After an incubation period of 4 days, samples are checked for egg mortality, larval mortality, and growth regulation.

[2] = test system: Heliothis virescens (Tobacco Budworm); assay: Example B2: activity against Heliothis virescens, ovo-larvicide, feeding/contact, curative; format: in vivo; details: 96 h, 4 days incubation, eggs 0-24 h old
Procedure: Activity Against Heliothis virescens (Tobacco Budworm)
(Ovo-Larvicide, Feeding/Contact Activity, Curative)
as §1

[3] = test system: Frankliniella occidentalis (Western Flower Thrips); assay: Example B9: activity against Frankliniella occidentalis (bean leaf discs or bean plants); format: in vivo; details: foliar, 6 days (leaf discs) or 14 days (plants) after infestation
Procedure: Activity Against Frankliniella occidentalis (Western Flower Thrips)
Bean leaf discs on agar in petri dishes or bean plants in a spray chamber are treated with diluted test solutions. After drying leaf discs are cut and placed in plastic cups on the surface of an agar layer and infested with mixed population. 6 days (leaf discs) or 14 days (plants) after the infestation, samples are checked for reduction of treated population and compared to the non treated population.

[4] = test system: Thrips tabaci (Onion Thrips); assay: Example B7: activity against Thrips tabaci, mixed population, feeding/residual contact, preventive; details: 144 h, read-out: activity
[5] = test system: Cydia pomonella (Codling Moth); assay: Example B8: activity against Cydia pomonella (paraffin-coated diet cubes); format: in vivo; details: 336 h, 14 days incubation at 26° C.
Procedure: Activity Against Cydia pomonella (Codling Moth)
Standard Cydia diet cubes (1.5 cm width) are pierced with a tooth-pick and are immersed in liquid paraffin (ca. 80° C.). After the paraffin coat has hardened, an aqueous emulsion containing 400 ppm of active ingredient is applied using a De Vilbis sprayer (25 ml, 1 bar). After the spray coating has dried, the cubes are put into plastic containers which are then populated with two freshly hatched Cydia pomonella (1st instar). The containers are then closed with a plastic cap. After 14 days incubation at 26° C. and 40-60% relative humidity, the survival rate of the caterpillars as well as their growth regulation is determined. In this test, compounds listed in Table P above show good activity. In particular compounds P.10, P.11, P.12, P.18, P.19, P.20, P.29, P.30, P.31, P.32, P.33, P.34, P.35, P.37, P.38, P.39, P.42, and P.43 show an activity of over 80% at a concentration of 400 ppm.

[6] = test system: Spodoptera littoralis (Egyptian Cotton Leafworm); assay: Example B1: activity against Spodoptera littoralis, larvicide, feeding/residual contact, preventive (cotton leaf discs); format: in vivo; details: foliar, 72 h, 3 days after treatment, L1 larvae
[7] = test system: Myzus persicae (Green Peach Aphid); assay: Example B5: activity against Myzus persicae, mixed population, feeding/residual contact, preventive (sunflower leaf discs); details: foliar, 144 h, read-out: activity
[8] = test system: Diabrotica balteata (Corn Root Worm); assay: Example B4: Diabrotica balteata, larvicide, feeding/residual contact, preventive; format: in vivo; details: 120 h, 5 days incubation, L2 larvae
Outline: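 Artificial diet treated with test solution, dried, then infested with 6-10 L2 larvae per well. Larval mortality, antifeedant effect and growth regulation checked after 5 days of incubation.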

[9] = test system: Aphis craccivora (Pea Aphid); assay: Example B11: activity against Aphis craccivora, mixed population, systemic/feeding; format: in vivo; details: 144 h, 6 days, roots in test solution (systemic)
Excerpt: (§2) Activity Against Aphis craccivora (Pea Aphid)
(§3) (Mixed Population, Systemic/Feeding)
(§4) 6 days later, samples are checked for mortality.

[10] = test system: Myzus persicae (Green Peach Aphid); assay: Example B6: activity against Myzus persicae, mixed population, systemic/feeding, curative (pea seedling roots); details: 144 h, read-out: activity
[11] = test system: Plutella xylostella (Diamond Back Moth); assay: Example B3: Plutella xylostella, larvicide, feeding/residual contact, preventive (artificial diet MTP); format: in vivo; details: 120 h, 5 days incubation, L2 larvae
Outline: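 Artificial diet in multiwell plates treated with test solution, dried, then infested with 10–15 L2 larvae per well. After 5 days, larval mortality, antifeedant effect and growth regulation were scored.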

[12] = test system: Aphis craccivora (Pea Aphid); assay: Example B10: activity against Aphis craccivora, mixed population, contact/feeding; format: in vivo; details: 144 h, 6 days after treatment, spray (contact/feeding)
Excerpt: as §2
(Mixed Population, Contact/Feeding)
6 days after treatment, samples are checked for mortality.

[13] = test system: Aphis aossypii (Cotton Aphid); assay: Example B13: activity against cotton aphid, mixed population, systemic/feeding; format: in vivo; details: 144 h, 6 days, roots in test solution (systemic)
Excerpt: Activity Against Aphis aossypii (Cotton Aphid)
as §3, §4

Row | SMILES | Death rate (%) after 5 days ([1]; 0.8 ppm) [%] | Death rate (%) after 5 days ([1]; 3.1 ppm) [%] | Death rate (%) after 5 days ([1]; 12.5 ppm) [%] | Death rate (%) after 5 days ([1]; 50 ppm) [%] | inhibition at 0.8 ppm (Heliothis virescens) [%] | inhibition at 3.1 ppm (Heliothis virescens) [%] | inhibition at 12.5 ppm (Heliothis virescens) [%] | inhibition at 50 ppm (Heliothis virescens) [%] | pest or weed control at 400 ppm [2] [%] | pest or weed control at 400 ppm [3] [%] | pest or weed control at 400 ppm [4] [%] | pest or weed control at 400 ppm [5] [%] | pest or weed control at 400 ppm [6] [%] | pest or weed control at 400 ppm [7] [%] | pest or weed control at 400 ppm [8] [%] | pest or weed control at 400 ppm [9] [%] | pest or weed control at 400 ppm [10] [%] | pest or weed control at 400 ppm [11] [%] | pest or weed control at 400 ppm [12] [%] | pest or weed control at 400 ppm [13] [%]
1 | Cc1nc2ccccc2c(C(=O)NC(C)C)c1NC(=O)c1cc(C(F)(F)F)nn1-c1ncccc1Cl [Compound T81.3, reference compound] | 0 | 0 | 60 | 100 | 0 | 25 | 65 | 80 | – | – | – | – | – | – | – | – | – | – | – | –
2 | CC(C)NC(=O)c1c(NC(=O)c2cc(C(F)(F)F)nn2-c2ncccc2Cl)c(Cl)cc2cn[nH]c12 [P.10] | – | – | – | – | – | – | – | – | > 80 | > 80 | > 80 | > 80 | > 80 | > 80 | > 80 | > 80 | > 80 | > 80 | > 80 | –
3 | COc1cc(C(=O)Nc2c(C)cc3cn[nH]c3c2C(=O)NC(C)C)n(-c2ncccc2Cl)n1 [P.27, 6-{[2-(3-chloro-pyridin-2-yl)-5-methoxy-2H-pyrazole-3-carbonyl]-amino}-5-methyl-1H-indazole-7-carboxylic acid isopropylamide] | – | – | – | – | – | – | – | – | > 80 | > 80 | > 80 | – | > 80 | > 80 | > 80 | > 80 | > 80 | > 80 | > 80 | > 80
4 | COc1cc(C(=O)Nc2c(C)cc3cn[nH]c3c2C(=O)NC2(C3CC3)CC2)n(-c2ncccc2Cl)n1 [P.28, 6-{[2-(3-chloro-pyridin-2-yl)-5-methoxy-2H-pyrazole-3-carbonyl]-amino}-5-methyl-1H-indazole-7-carboxylic acid bicyclopropyl-1-ylamide] | – | – | – | – | – | – | – | – | > 80 | > 80 | > 80 | – | > 80 | > 80 | > 80 | > 80 | > 80 | > 80 | > 80 | > 80
5 | CCNC(=O)c1c(NC(=O)c2cc(C(F)(F)F)nn2-c2ncccc2Cl)c(Cl)cc2cn[nH]c12 [P.30] | – | – | – | – | – | – | – | – | > 80 | > 80 | – | > 80 | > 80 | > 80 | > 80 | > 80 | > 80 | > 80 | > 80 | > 80
6 | CC(C)NC(=O)c1c(NC(=O)c2cc(C(F)F)nn2-c2ncccc2Cl)c(Cl)cc2cn[nH]c12 [P.39] | – | – | – | – | – | – | – | – | > 80 | > 80 | > 80 | > 80 | > 80 | > 80 | > 80 | > 80 | > 80 | > 80 | – | > 80
7 | COc1cc(C(=O)Nc2c(Cl)cc3cn[nH]c3c2C(=O)NC(C)C)n(-c2ncccc2Cl)n1 [P.40] | – | – | – | – | – | – | – | – | > 80 | > 80 | > 80 | – | > 80 | > 80 | – | > 80 | > 80 | > 80 | > 80 | > 80
8 | CC(C)NC(=O)c1c(NC(=O)c2cc(Br)nn2-c2ncccc2Cl)c(Cl)cc2cn[nH]c12 [P.42] | – | – | – | – | – | – | – | – | > 80 | > 80 | > 80 | > 80 | > 80 | > 80 | > 80 | > 80 | > 80 | > 80 | > 80 | > 80
9 | CC(C)NC(=O)c1c(NC(=O)c2cc(Cl)nn2-c2ncccc2Cl)c(Cl)cc2cn[nH]c12 [P.43] | – | – | – | – | – | – | – | – | > 80 | > 80 | > 80 | > 80 | > 80 | > 80 | > 80 | > 80 | > 80 | > 80 | > 80 | > 80
10 | Cc1cc2cn[nH]c2c(C(=O)NC(C)C)c1NC(=O)c1cc(C(F)(F)F)nn1-c1ncccc1Cl [P.44] | – | – | – | – | – | – | – | – | > 80 | > 80 | > 80 | – | > 80 | > 80 | > 80 | > 80 | > 80 | > 80 | > 80 | > 80
11 | O=C(NC1(C2CC2)CC1)c1c(NC(=O)c2cc(Br)nn2-c2ncccc2Cl)c(Cl)cc2cn[nH]c12 [P.46] | – | – | – | – | – | – | – | – | > 80 | > 80 | > 80 | – | > 80 | > 80 | > 80 | > 80 | > 80 | > 80 | > 80 | –
12 | COc1cc(C(=O)Nc2c(Cl)cc3cn[nH]c3c2C(=O)NC2(C3CC3)CC2)n(-c2ncccc2Cl)n1 [P.47] | – | – | – | – | – | – | – | – | > 80 | > 80 | > 80 | – | > 80 | > 80 | > 80 | > 80 | > 80 | > 80 | > 80 | > 80
13 | Cc1cc2cn[nH]c2c(C(=O)NC2(C3CC3)CC2)c1NC(=O)c1cc(C(F)(F)F)nn1-c1ncccc1Cl [P.49] | – | – | – | – | – | – | – | – | > 80 | > 80 | > 80 | – | > 80 | > 80 | > 80 | > 80 | > 80 | > 80 | > 80 | –
